Laboratory results: the supplement of paper PMC10307832

Assays:
Assay in all cases: relative viability (nuclei count vs DMSO), 5 days (fraction); higher = more cells survive
[1] = compound: COC1=CC=C(C=C1)CN2C=CC3=C2C=C(C=C3)C(=O)NO + Nc1nc2[nH]cc(CCc3ccc(C(=O)N[C@@H](CCC(=O)O)C(=O)O)cc3)c2c(=O)[nH]1 [Pemetrexed] (partner 0.2 µM)
Outline: (§1)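 Each reported value is a median over duplicate plates. It expresses relative viability: treated-well nuclei count divided by vehicle-well nuclei count. Lung cancer cell lines in 1536-well plates were dosed by pin tool a day after seeding, alone with one drug or with a fixed anchor-drug dose plus five library-drug doses (not always all listed) in √10 steps, and nuclei were counted after 5 days.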

[2] = compound: COC1=CC=C(C=C1)CN2C=CC3=C2C=C(C=C3)C(=O)NO + O=C(c1cc(Cc2n[nH]c(=O)c3ccccc23)ccc1F)N1CCN(C(=O)C2CC2)CC1 [Olaparib] (partner 8 µM)
Outline: as §1

[3] = compound: C[C@]1(c2nc3c(C(N)=O)cccc3[nH]2)CCCN1 [Veliparib] + CS(=O)(=O)N1CCN(Cc2cc3nc(-c4cccc5[nH]ncc45)nc(N4CCOCC4)c3s2)CC1 [Pictilisib] (partner 1 µM)
Outline: as §1

[4] = compound: C[C@]1(c2nc3c(C(N)=O)cccc3[nH]2)CCCN1 [Veliparib] + O=C(CCCCCCC(=O)Nc1ccccc1)NO [Vorinostat] (partner 1 µM)
Outline: as §1

Cell Line	relative viability ([1]; first compound 0.08 µM)	relative viability ([1]; first compound 0.253 µM)	relative viability ([1]; first compound 0.8 µM)	relative viability ([1]; first compound 2.53 µM)	relative viability ([1]; first compound 8 µM)	relative viability ([2]; first compound 0.08 µM)	relative viability ([2]; first compound 0.253 µM)	relative viability ([2]; first compound 0.8 µM)	relative viability ([2]; first compound 2.53 µM)	relative viability ([2]; first compound 8 µM)	relative viability ([3]; first compound 0.02 µM)	relative viability ([3]; first compound 0.06325 µM)	relative viability ([3]; first compound 0.2 µM)	relative viability ([3]; first compound 0.6325 µM)	relative viability ([3]; first compound 2 µM)	relative viability ([4]; first compound 0.02 µM)	relative viability ([4]; first compound 0.06325 µM)	relative viability ([4]; first compound 0.2 µM)	relative viability ([4]; first compound 0.6325 µM)	relative viability ([4]; first compound 2 µM)
NCI-H23	0.514	0.625	0.714	0.709	0.668	0.302	0.282	0.314	0.322	0.304	0.598	0.477	0.451	0.449	0.563	0.633	0.45	0.544	0.543	0.56
NCI-H322M			0.561	0.635	0.609			0.805	0.845	0.621	0.496	0.459	0.573	0.525	0.321		0.873	0.899	0.976	0.717
NCI-H358		0.161	0.161	0.167	0.164		0.614	0.59	0.544	0.49		0.37	0.38	0.315	0.342	0.728	0.661	0.877	0.669	0.76
NCI-H441	0.26	0.264	0.273	0.278	0.261	0.441	0.58	0.526	0.497	0.609	0.472	0.501	0.588	0.504	0.516	0.75	0.552	0.63	0.695	0.83
NCI-H460	0.0617	0.058	0.0547	0.0598	0.0652	0.426	0.457	0.401	0.465	0.397	0.349	0.335	0.325	0.347	0.377	0.693	0.608	0.599	0.602	0.635
NCI-H520	0.525	0.743	0.641	0.661	0.648	0.342	0.362	0.327	0.339	0.286	0.392	0.267	0.316	0.283	0.227	0.769	0.62	0.612	0.727	0.773
NCI-H596	0.42	0.501	0.5	0.469	0.492	0.66	0.778	0.735	0.805	0.725	0.394	0.35	0.4	0.362	0.416	0.659	0.55	0.498	0.624	0.55
NCI-H647	0.142	0.154	0.149	0.166	0.231	0.557	0.537	0.422	0.495	0.547	0.347	0.368	0.436	0.447	0.265	0.584	0.606	0.385	0.366	0.427
NCI-H650	0.864	1.03	0.89	0.892	0.888	0.351	0.417	0.452	0.353	0.418	0.968	0.855	0.926	0.743	0.809	0.29	0.333	0.397	0.457	0.432
NCI-H661		0.889	0.836	0.957	0.954		0.726	0.778	0.67	0.66	0.397	0.317	0.354	0.359	0.393	0.815	0.807	0.713	0.697	0.76
NCI-H838	0.232	0.27	0.244	0.234	0.257	0.622	0.843	0.796	0.735	0.696	0.441	0.455	0.418	0.335	0.457	0.792	0.692	0.71	0.652	0.725
NCI-H1355	0.538	1.06	0.978	1.06	0.998	0.419	0.807	0.773	0.775	0.727		0.329	0.477	0.406	0.472	0.44	0.528	0.638	0.626	0.596
NCI-H1395		0.788	0.913	0.91	0.726		0.419	0.49	0.496	0.436		0.516	0.557	0.675	0.524	0.432	0.485	0.648	0.638	0.499
NCI-H1437	0.334	0.358	0.319	0.305	0.3	0.603	0.635	0.626	0.676	0.618	0.419	0.512	0.552	0.378	0.362	0.886	0.746	0.798	0.887	0.813
NCI-H1650	0.286	0.428	0.378	0.392	0.308	0.753	0.813	0.775	0.762	0.78		0.507	0.61	0.519	0.566	0.57	0.471	0.523	0.627	0.6
NCI-H1651	0.561	0.523	0.587	0.512	0.56	0.168	0.158	0.194	0.182	0.179	0.572	0.601	0.559	0.457	0.558	0.557	0.551	0.513	0.464	0.504
NCI-H1666	0.761	0.914	0.84	0.918	0.87	0.746	0.737	0.745	0.682	0.818	0.357	0.334	0.625	0.427	0.49	0.988	0.963	1.14	0.997	1.05
